Where two headings read alike, the source gives them in different places. Marks after values point to notes of the source that are not given here.

The test system of test [1] is Du145 cells. The test is described as follows: Calcein AM cytotoxicity assay, Du145. Type of test: cell-based. The conditions noted are these: Homo sapiens. The text has this:
(§1) Five serial 1:2 dilutions were made with anhydrous DMSO at 100× the final concentration used in the assay.

Test [2] concerns Du145 cells. Put plainly: Cell Titer-Glo cytotoxicity assay, Du145. Type of test: cell-based. As to conditions: Homo sapiens.
From the text: as §1
Background: In ATP-based viability assays light output follows the ATP content of the culture.

In test [3] the test system is HCT-116 cells. The test is described as follows: Calcein AM cytotoxicity assay, HCT-116. Type of test: cell-based. The conditions noted are these: Homo sapiens.
From the text: as §1

The subject of test [4] is HCT-116 cells. Put plainly: Cell Titer-Glo cytotoxicity assay, HCT-116. Type of test: cell-based. The conditions noted are these: Homo sapiens.
From the text: as §1

Test [5] concerns Hep3B cells. Put plainly: Calcein AM cytotoxicity assay, Hep3B. The class given is cell-based. As to conditions: Homo sapiens, 72 h.
From the text: as §1

Test [6] deals with Hep3B cells. The test is described as follows: Cell Titer-Glo cytotoxicity assay, Hep3B. The class given is cell-based. The conditions noted are these: Homo sapiens, 72 h.
From the text: as §1

The test system of test [7] is SF-268 cells. Put plainly: Calcein AM cytotoxicity assay, SF-268. Type of test: cell-based. As to conditions: Homo sapiens.
From the text: as §1

Test [8] concerns SF-268 cells. Put plainly: Cell Titer-Glo cytotoxicity assay, SF-268. Type of test: cell-based. The conditions noted are these: Homo sapiens.
From the text: as §1

For test [9], the system named is SK-OV-3 cells. The test is described as follows: Calcein AM cytotoxicity assay, SK-OV-3. Type of test: cell-based. The conditions noted are these: Homo sapiens.
From the text: as §1

For test [10], the system named is SK-OV-3 cells. Put plainly: Cell Titer-Glo cytotoxicity assay, SK-OV-3. As to conditions: Homo sapiens. The class given is cell-based.
From the text: as §1

Test [11] has as its system NCI/ADR RES cells. Put plainly: Calcein AM cytotoxicity assay, NCI/ADR-RES. Type of test: cell-based. The conditions noted are these: Homo sapiens, 72 h.
From the text: as §1

Test [12] deals with NCI/ADR RES cells. The test is described as follows: Cell Titer-Glo cytotoxicity assay, NCI/ADR-RES. The class given is cell-based, human. As to conditions: for IC50: Homo sapiens, NCI/ADR-RES, 72 h.
From the text: as §1

For test [13], the system named is NCI-H460 cells. The test is described as follows: Calcein AM cytotoxicity assay, NCI-H460. Type of test: cell-based. The conditions noted are these: Homo sapiens.
From the text: as §1

The test system of test [14] is NCI-H460 cells. The test is described as follows: Cell Titer-Glo cytotoxicity assay, NCI-H460. The class given is cell-based, human.
From the text: as §1

In test [15] the test system is MCF7 cells. Put plainly: Calcein AM cytotoxicity assay, MCF7. Type of test: cell-based. The conditions noted are these: Homo sapiens.
From the text: as §1

The subject of test [16] is MCF7 cells. The test is described as follows: Cell Titer-Glo cytotoxicity assay, MCF7. Type of test: cell-based, human. As to conditions: Homo sapiens.
From the text: as §1

Test [17] relates to NmuMG mouse mammary normal epithelial cells. Put plainly: Calcein AM cytotoxicity assay, NmuMG. The class given is cell-based. The conditions noted are these: Epithelial cell, 72 h.
From the text: as §1

The test system is the same in test [18]. The test is described as follows: Cell Titer-Glo cytotoxicity assay, NmuMG. Type of test: cell-based. The conditions noted are these: for IC50: Mus musculus, Epithelial cell, 72 h.
From the text: as §1

A further test has as its system HT-29 cells. The test is described as follows: MTT cytotoxicity assay, HT-29. Type of test: cell-based. The conditions noted are these: Homo sapiens.
Another test concerns human cancer cell lines. The test is described as follows: Cytotoxicity across the panel of human cancer cell lines (average, high-throughput assays). The class given is cell-based. As to conditions: for IC50: read-out: Cancerous Average IC50 / Average IC50 in Cancer Cell Lines.
From the text: as §1

[19] abbreviates: DU-145, Du145, Calcein AM, 72 h, read-out: IC50.
Setting [20] is: DU-145, Du145, Cell Titer-Glo, 72 h, read-out: IC50.
Where [21] appears, read: HCT-116, Calcein AM, 72 h, read-out: IC50.
The mark [22] stands for this setting: HCT-116, Cell Titer-Glo, 72 h, read-out: IC50.
[23] abbreviates: SF-268, Calcein AM, 72 h, read-out: IC50.
The mark [24] stands for this setting: SF-268, Cell Titer-Glo, 72 h, read-out: IC50.
[25] abbreviates: SK-OV-3, Calcein AM, 72 h, read-out: IC50.
The mark [26] stands for this setting: SK-OV-3, Cell Titer-Glo, 72 h, read-out: IC50.
The mark [27] stands for this setting: NCI-H460, Calcein AM, 72 h, read-out: IC50.
Setting [28] is: Homo sapiens, NCI-H460, Cell Titer-Glo, 72 h, read-out: IC50.
Setting [29] is: MCF7, Calcein AM, 72 h, read-out: IC50.
Setting [30] is: MCF7, Cell Titer-Glo, 72 h, read-out: IC50.
[31] abbreviates: NmuMG, Calcein AM, read-out: IC50.
[32] abbreviates: NmuMG, Cell Titer-Glo, read-out: IC50.
The mark [33] stands for this setting: HT-29, MTT, 24 h, read-out: IC50.
[34] abbreviates: average across eight human cancer cell lines, MTT (HT-29) values excluded.

As to `CCCCc1ccc(N=C=S)cc1` [Compound 21, 1-butyl-4-isothiocyanatobenzene], the IC50 in the test with Du145 cells [1] (setting [19]) is > 50 µM; in the test on Du145 cells [2] (setting [20]), 48 µM; with HCT-116 cells [3] (setting [21]), > 50 µM; with HCT-116 cells [4] (setting [22]), 19.4 µM; with Hep3B cells [5] (Calcein AM, read-out: IC50), > 50 µM; in the test on Hep3B cells [6] (Cell Titer-Glo, read-out: IC50) it was > 50 µM. Moreover, the IC50 is 21.5 µM with SF-268 cells [7] (setting [23]); 32.1 µM with SF-268 cells [8] (setting [24]); 15.9 µM in the test on SK-OV-3 cells [9] (setting [25]); 31.4 µM in the test on SK-OV-3 cells [10] (setting [26]); > 50 µM in the test with NCI/ADR RES cells [11] (Calcein AM, read-out: IC50); > 50 µM in the test on NCI/ADR RES cells [12] (Cell Titer-Glo, read-out: IC50). The IC50 in the test with NCI-H460 cells [13] (setting [27]) is > 50 µM; with NCI-H460 cells [14] (setting [28]) it was > 50 µM; in the test on NCI-H460 cells [14] (NCI-H460, Cell Titer-Glo, 72 h), “^fNon-inhibitory in Hep3B, NCI/ADR RES, NCI-H460”; in the test on MCF7 cells [15] (setting [29]) it was 45.8 µM; in the test on MCF7 cells [16] (setting [30]) it was 45.4 µM; in test [17] (setting [31]) it was 71.9 µM. For the same compound, the results for the IC50 (in test [18] (setting [32]); in the test on HT-29 cells (setting [33]); in the test on human cancer cell lines (setting [34])) were 65.7 µM, > 50 µM and 35.2 µM, respectively. For the same compound, in the test on human cancer cell lines (setting [34]), the “Cancerous Average IC50 / Average IC50 in Cancer Cell Lines” value is 35.25^f μM.
On to `S=C=NCc1cccnc1` [Compound 22, 3-(isothiocyanatomethyl)pyridine], for which the IC50 with Du145 cells [1] (DU-145, 72 h) was < 1.88 µM; in the test with Du145 cells [2] (DU-145, 72 h) it was 2.91 µM; in the test on HCT-116 cells [3] (HCT-116, 72 h), 1.26 µM; with HCT-116 cells [4] (HCT-116, 72 h) it was 2.04 ± 0.21 µM; in the test on Hep3B cells [5], 3.64 µM; in the test with Hep3B cells [6] it was 3 µM. Besides, the IC50 is 2.68 µM in the test with SF-268 cells [7] (SF-268, 72 h); 2.46 µM in the test on SF-268 cells [8] (SF-268, 72 h); 2.6 µM in the test on SK-OV-3 cells [9] (SK-OV-3, 72 h); 2.21 µM in the test on SK-OV-3 cells [10] (SK-OV-3, 72 h); 2.27 µM with NCI/ADR RES cells [11]; 1.18 ± 0.06 µM with NCI/ADR RES cells [12]. For the same compound, the IC50 is 5.18 µM in the test with NCI-H460 cells [13] (NCI-H460, 72 h); 4.51 µM in the test on NCI-H460 cells [14] (Homo sapiens, NCI-H460, 72 h); 2.31 µM with MCF7 cells [15] (MCF7, 72 h); 2.04 µM in the test on MCF7 cells [16] (MCF7, 72 h); < 12.5 µM in test [17]; 26 ± 1.15 µM in test [18]. Further, the IC50 in the test on HT-29 cells (HT-29, 24 h) amounted to 21.3 µM; in the test with human cancer cell lines (Homo sapiens) it was 2.54 µM. In addition, the “fold more potent than L-sulforaphane” value in the test with NCI/ADR RES cells [12] (NCI/ADR RES cells) is given as ~7.5 fold. Besides, in the test with NCI/ADR RES cells [12] (NCI/ADR RES cells, phenyl replaced by 3-pyridine), the “fold increase in potency versus 23” value was ≤ 10 fold. Moreover, the “fold less potent than L-sulforaphane” value in test [18] (NmuMG cells) is on record as ~4 fold. Further, the “fold increase in effectiveness relative to L-sulforaphane” value in the test with human cancer cell lines (potency in NCI/ADR RES and selectivity over NmuMG taken together) is ~30 fold.
On to `S=C=NCc1ccccc1` [Compound 23, 1-(isothiocyanatomethyl)benzene], for which the IC50 in the test on Du145 cells [1] (setting [19]) is 5.37 µM; with Du145 cells [2] (setting [20]), 4.64 µM; in the test on HCT-116 cells [3] (setting [21]), 11.5 µM; with HCT-116 cells [4] (setting [22]), 3.19 µM; with Hep3B cells [5] (Calcein AM, read-out: IC50) it was 22.5 µM; in the test on Hep3B cells [6] (Cell Titer-Glo, read-out: IC50) it was 9.7 ± 0.37 µM. The IC50 with SF-268 cells [7] (setting [23]) was 11.5 µM; in the test with SF-268 cells [8] (setting [24]), 8.27 µM; with SK-OV-3 cells [9] (setting [25]), 7.18 µM; with SK-OV-3 cells [10] (setting [26]), 8.86 µM; with NCI/ADR RES cells [11] (Calcein AM, read-out: IC50) it was 15.5 µM; with NCI/ADR RES cells [12] (Cell Titer-Glo, read-out: IC50), 11.5 ± 0.77 µM. For the same compound, the IC50 in the test on NCI-H460 cells [13] (setting [27]) was 22.9 µM; with NCI-H460 cells [14] (setting [28]) it was 14.5 µM; with MCF7 cells [15] (setting [29]) it was 16 µM; in the test on MCF7 cells [16] (setting [30]) it was 10.6 µM; in test [17] (setting [31]), < 12.5 µM; in test [18] (setting [32]) it was 15.4 µM. Besides, the IC50 was determined as 31.4 µM with HT-29 cells (setting [33]) and 9.47 µM with human cancer cell lines (setting [34]). For the same compound, the “fold increase in potency versus fully-saturated 18” value in the test on human cancer cell lines (average IC50 compared) is listed as > 3 fold.

Source of the values: US20080312164A1 (priority 2006, published 2008).
